Usually EC50 stands for the concentration giving half of the maximal effect.

Records with an inconclusive call do not appear.

The values that follow come from PubChem BioAssay AID1919672.

This assay concerns the target Excitatory amino acid transporter 2 (Homo sapiens) (UniProt P43004). Kind of assay: aspartate transport by overexpressed wild-type EAAT2 – HEK293 overexpressing cells, iAspSnFR biosensor, flow cytometry, dose response (AID 1919672). Particulars: HEK293 SLC1A2-OE, iAspSnFR aspartate uptake. (Flow cytometry measures light scatter and fluorescence of single cells or particles in a stream.)

Sequence of Excitatory amino acid transporter 2 (Homo sapiens) (P43004 whole entry, looked up, the tested form may be a part): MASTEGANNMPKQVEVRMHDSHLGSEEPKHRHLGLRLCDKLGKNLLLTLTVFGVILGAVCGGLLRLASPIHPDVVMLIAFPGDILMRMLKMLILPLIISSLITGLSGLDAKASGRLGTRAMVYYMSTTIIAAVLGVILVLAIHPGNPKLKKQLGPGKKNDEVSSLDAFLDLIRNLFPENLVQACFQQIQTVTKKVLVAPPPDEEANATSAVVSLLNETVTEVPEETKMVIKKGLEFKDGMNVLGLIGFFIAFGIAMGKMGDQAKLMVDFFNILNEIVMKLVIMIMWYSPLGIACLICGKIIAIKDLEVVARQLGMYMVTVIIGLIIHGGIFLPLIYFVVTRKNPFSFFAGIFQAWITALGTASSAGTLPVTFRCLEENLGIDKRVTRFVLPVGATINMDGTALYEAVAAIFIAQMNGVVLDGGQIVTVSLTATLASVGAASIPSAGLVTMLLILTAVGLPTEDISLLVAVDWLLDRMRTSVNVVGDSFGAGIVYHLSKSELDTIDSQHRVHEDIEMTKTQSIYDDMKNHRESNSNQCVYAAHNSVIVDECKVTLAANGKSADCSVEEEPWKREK

Turning to `N[C@@H](CC(=O)O)C(=O)O`, the EC50 is 11 µM.
